Reference: PMC8188729 (Nature, 2020)
Where two headings read alike, the source gives them in different places.

What was measured:
[1] = tested on: primary human hepatocytes; experiment: Metabolic stability of [3H]GS-6207 in primary human hepatocytes; assay type: in vitro ADME; details: [3H]GS-6207, primary human hepatocytes
[2] = Study GS-US-200-4072: pharmacokinetics in participants living with HIV; assay type: in vivo, human; details: for CD9 / paEC95 (mean), fold EC95 coverage on day 9: PLWH; for concentration at 9 day: both, human, plasma, sc
HIV-1 DNA = experiment: Quantitation of HIV-1 DNA forms in infected MT-2 cells by PCR; details: GS-6207 at 1.25 nM
[3] = tested on: HIV-1 recombinant strains resistant to NRTIs, NNRTIs, INSTIs, PIs or MIs; assay type: cell-based
Cytotoxicity assay [4] = assay type: cell-based; details: human, Huh-7 cells
Cytotoxicity assay [5] = assay type: cell-based; details: human, MT-4 cells
[6] = assay type: in vivo, human; details: for AUCexp: healthy volunteers, mean (%CV); for time plasma concentrations exceeded paEC95: single SC, healthy participants
HIV-1IIIb = experiment: microbe, parasite or virus in culture; assay type: cell-based
CA pentamer = CA pentamer (Human immunodeficiency virus type 1 group M subtype B, UniProt P12493, A154C/M317A/N153C/W316A); experiment: biochemical; assay type: binding
CA hexamer = CA hexamer (Human immunodeficiency virus type 1 group M subtype B, UniProt P12493, A146C/E177C/M317A/W316A); experiment: Surface plasmon resonance binding assay; design: species or system HIV-1
HIV-1BaL = experiment: p24 endpoint antiviral assay in macrophage cultures; assay type: cell-based; details: Human immunodeficiency virus 1, Macrophage, read-out: mean EC50
[7] = Study GS-US-200-4072: safety in participants living with HIV; assay type: in vivo, human; details: for Any AE / Arthralgia / Constipation / Haemorrhoids / Headache / Injection site erythema / Injection site induration / Injection site nodule / Injection site pain / Nasopharyngitis / Nausea / Oropharyngeal pain / Rash / Serious AE: Atrial fibrillation / Syphilis / Upper respiratory tract infection / Vomiting: PLWH
[8] = both, human, plasma, sc, 100 mg
[9] = both, human, plasma, sc, 300 mg
[10] = both, human, plasma, sc, 450 mg
[11] = GS-6207 20 mg or Placebo (n = 8)
[12] = GS-6207 50 mg or Placebo (n = 8)

With `CC(C)(C#Cc1ccc(-c2ccc(Cl)c3c(NS(C)(=O)=O)nn(CC(F)(F)F)c23)c([C@H](Cc2cc(F)cc(F)c2)NC(=O)Cn2nc(C(F)(F)F)c3c2C(F)(F)[C@@H]2C[C@H]32)n1)S(C)(=O)=O` [GS-6207] the hepatic extraction [1] was 0.8%, the “predicted rate of hepatic clearance” value [1] was 0.17 mL/min/kg and the “CD9 / paEC95 (mean), fold EC95 coverage on day 9” value ([2]; 20 mg SC) was 0.67. The “CD9 / paEC95 (mean), fold EC95 coverage on day 9” value ([2]; 50 mg SC) was 1.14, the “CD9 / paEC95 (mean), fold EC95 coverage on day 9” value ([2]; 150 mg SC) was 3.33 and the “CD9 / paEC95 (mean), fold EC95 coverage on day 9” value ([2]; 450 mg SC) was 9.87. For the same compound, the concentration at 9 day ([2]; 20 mg) was 2.58 ng/mL, the concentration at 9 day ([2]; 50 mg) was 4.4 ng/mL and the concentration at 9 day ([2]; 150 mg) was 12.9 ng/mL. For the same compound, the concentration at 9 day ([2]; 450 mg) was 38.2 ng/mL, the “HIV cDNA synthesis (late RT products)” value (HIV-1 DNA) was “did not alter” and the “formation of 2-LTR circles” value (HIV-1 DNA) was “significantly reduced”. For the same compound, the “formation of integrated proviruses” value (HIV-1 DNA) was “significantly reduced”, the Fold resistance ([3]; HIV-1 mutant 6TAMs (NRTI)) was 0.2 ± 0.1 (3) and the Fold resistance ([3]; HIV-1 mutant E92Q+N155H (INSTI)) was 0.8 ± 0.4 (3). For the same compound, the Fold resistance ([3]; HIV-1 mutant E138K+Q148K (INSTI)) was 0.6 ± 0.3 (3), the Fold resistance ([3]; HIV-1 mutant G48V+V82A+L90M (PI)) was 0.5 ± 0.2 (3) and the Fold resistance ([3]; HIV-1 mutant G48V+V82S (PI)) was 0.4 ± 0.2 (3). For the same compound, the Fold resistance ([3]; HIV-1 mutant G140S+Q148R (INSTI)) was 0.8 ± 0.3 (3), the Fold resistance ([3]; HIV-1 mutant I84V+L90M (PI)) was 0.3 ± 0.1 (3) and the Fold resistance ([3]; HIV-1 mutant K65R (NRTI)) was 0.6 ± 0.2 (3). The Fold resistance ([3]; HIV-1 mutant K103N+Y181C (NNRTI)) was 0.6 ± 0.2 (3), the Fold resistance ([3]; HIV-1 mutant L100I+K103N (NNRTI)) was 0.5 ± 0.2 (3) and the Fold resistance ([3]; HIV-1 mutant M46I+I50V (PI)) was 0.7 ± 0.2 (3). For the same compound, the Fold resistance ([3]; HIV-1 mutant M184V (NRTI)) was 0.3 ± 0.3 (3), the Fold resistance ([3]; HIV-1 mutant N155H+Q148R (INSTI)) was 1.2 ± 0.7 (3) and the Fold resistance ([3]; HIV-1 mutant V7A in SP1 (MI)) was 0.8 ± 0.4 (8). For the same compound, the Fold resistance ([3]; HIV-1 mutant V230I in CA (MI)) was 0.7 ± 0.2 (6), the Fold resistance ([3]; HIV-1 mutant Y188L (NNRTI)) was 0.5 ± 0.1 (3) and the CC50 (Cytotoxicity assay [4]) was greater than 44400 nM. The CC50 (Cytotoxicity assay [5]) was 24700 ± 18300 nM, the AUCexp ([6]; 30 mg SC) was 17.6 (69.4) % and the AUCexp ([6]; 100 mg SC) was 6.78 (65.0) %. The AUCexp ([6]; 300 mg SC) was 5.39 (126) %, the AUCexp ([6]; 450 mg SC) was 3.29 (69.9) % and the AUC(0-inf) ([6]; both, human, plasma, sc, 30 mg) was 8700 ng·h/mL. It also gave an AUC(0-t) ([6]; both, human, plasma, sc, 30 mg) of 5500 ng·h/mL, a Cmax ([6]; both, human, plasma, sc, 30 mg) of 3.2 ng/mL and a half-life ([6]; both, human, plasma, sc, 30 mg) of 37 days. It also gave an AUC(0-inf) [6, 8] of 27300 ng·h/mL, an AUC(0-t) [6, 8] of 23600 ng·h/mL and a Cmax [6, 8] of 14.7 ng/mL. The half-life [6, 8] was 31.9 days, the AUC(0-inf) [6, 9] was 86100 ng·h/mL and the AUC(0-t) [6, 9] was 73100 ng·h/mL. It also gave a Cmax [6, 9] of 47.9 ng/mL, a half-life [6, 9] of 45.4 days and an AUC(0-inf) [6, 10] of 108000 ng·h/mL. The AUC(0-t) [6, 10] was 97600 ng·h/mL, the Cmax [6, 10] was 58.4 ng/mL and the Tmax [6, 10] was 14 days. For the same compound, the half-life [6, 10] was 39.7 days, the “time plasma concentrations exceeded paEC95” value ([6]; doses ≥ 100 mg) was no less than 12 weeks and the “time plasma concentrations exceeded paEC95” value ([6]; doses ≥ 300 mg) was greater than 24 weeks. For the same compound, the “duration of sustained plasma exposure at antivirally active concentrations” value ([6]; single subcutaneous dose 450 mg) was greater than 6 months, the EC50 (HIV-1IIIb; Human immunodeficiency virus 1, MT4, read-out: mean EC50) was 0.105 nM and the EC95 (HIV-1IIIb; calculated from EC50 and Hill coefficient) was 0.23 nM. For the same compound, the Kd (CA pentamer) was 0.22 ± 0.16 nM, the koff (CA pentamer; CA pentamer) was 2.7 ± 0.4 x 10^−5 s^−1 and the kon (CA pentamer; CA pentamer) was 2 ± 1 x 10^5 M^−1s^−1. The Kd (CA hexamer) was 0.24 ± 0.09 nM, the koff (CA hexamer; CA hexamer) was 1.4 ± 0.4 x 10^−5 s^−1 and the kon (CA hexamer; CA hexamer) was 6.5 ± 0.3 x 10^4 M^−1s^−1. The EC50 (HIV-1BaL) was 0.056 nM, the “Any AE” value [7, 11] was 5 (63) n (%) and the Arthralgia [7, 11] was 0 n (%). For the same compound, the Constipation [7, 11] was 0 n (%), the Haemorrhoids [7, 11] was 0 n (%) and the Headache [7, 11] was 1 (13) n (%). For the same compound, the Injection site erythema [7, 11] was 1 (13) n (%), the Injection site induration [7, 11] was 0 n (%) and the Injection site nodule [7, 11] was 0 n (%). The Injection site pain [7, 11] was 0 n (%), the Nasopharyngitis [7, 11] was 0 n (%) and the Nausea [7, 11] was 2 (25) n (%). For the same compound, the Oropharyngeal pain [7, 11] was 1 (13) n (%), the Rash [7, 11] was 1 (13) n (%) and the “Serious AE: Atrial fibrillation” value [7, 11] was 0 n (%). For the same compound, the Syphilis [7, 11] was 0 n (%), the “Upper respiratory tract infection” value [7, 11] was 0 n (%) and the Vomiting [7, 11] was 2 (25) n (%). For the same compound, the “Any AE” value [7, 12] was 6 (75) n (%), the Arthralgia [7, 12] was 0 n (%) and the Constipation [7, 12] was 1 (13) n (%). For the same compound, the Haemorrhoids [7, 12] was 1 (13) n (%), the Headache [7, 12] was 0 n (%) and the Injection site erythema [7, 12] was 1 (13) n (%). The Injection site induration [7, 12] was 1 (13) n (%), the Injection site nodule [7, 12] was 1 (13) n (%) and the Injection site pain [7, 12] was 4 (50) n (%). The Nasopharyngitis [7, 12] was 0 n (%), the Nausea [7, 12] was 1 (13) n (%) and the Oropharyngeal pain [7, 12] was 1 (13) n (%). The Rash [7, 12] was 1 (13) n (%), the “Serious AE: Atrial fibrillation” value [7, 12] was 0 n (%) and the Syphilis [7, 12] was 1 (13) n (%). For the same compound, the “Upper respiratory tract infection” value [7, 12] was 0 n (%), the Vomiting [7, 12] was 1 (13) n (%) and the safety and tolerability ([7]; single SC 20 to 450 mg, participants with untreated HIV-1 infection) was “generally safe and well tolerated”.
